Data on 15 molecules can be found in ChEMBL document CHEMBL6115036, “Exploration of membrane-active cephalosporin derivatives as potent antibacterial agents against Staphylococcus aureus biofilms and persisters” (Eur J Med Chem, 2025).

≈ marks a conversion by molar mass, not a printed value. Calls of active or inactive are those of the source. The rule behind the calls is not given here.

The test system of series [1] is Staphylococcus aureus. Briefly: Antimicrobial activity against Staphylococcus aureus incubated for 16 to 18 hrs by broth dilution assay. The series is classed as functional. To be noted: time 16-18 hrs. In general terms: Dilution methods test growth across graded concentrations, often in twofold steps.
Series [2] concerns Enterococcus faecalis. Briefly: Antimicrobial activity against Enterococcus faecalis incubated for 16 to 18 hrs by broth dilution assay. It counts as functional. Conditions: time 16-18 hrs.
For series [3], the system named is Stenotrophomonas maltophilia. Briefly: Antimicrobial activity against Stenotrophomonas maltophilia incubated for 16 to 18 hrs by broth dilution assay. It counts as functional. Conditions: time 16-18 hrs.
The nature of series [4]: Hemolytic activity in sheep red blood cells incubated for 1 hr. It counts as toxicity, cell-based, Ovis aries, Erythrocyte.
The test system of series [5] is Staphylococcus aureus. Put plainly: Induction of cytoplasmic membrane depolarization in Staphylococcus aureus assessed as increase in fluorescence intensity at 32 ug/ml measured for 20 mins by DiSC3(5) dye based analysis. Conditions: dose 32.0 µg/ml. It counts as functional, organism-based.
Series [6] deals with Staphylococcus aureus. Briefly: Induction of inner membrane permeability in Staphylococcus aureus assessed as increase in fluorescence intensity at 32 ug/ml measured for 20 mins by PI dye based analysis. The series is classed as functional, organism-based. Conditions: dose 32.0 µg/ml.
Series [7] has as its system Escherichia coli. Briefly: Antimicrobial activity against Escherichia coli incubated for 16 to 18 hrs by broth dilution assay. It counts as functional. To be noted: time 16-18 hrs.
Series [8] can be described thus: Cytotoxicity against HUVEC cells incubated for 24 hrs by CCK8 assay. Conditions: human. It counts as toxicity, cell-based. A general note: Formazan colour is commonly taken as a measure of viable cells.
In series [9] the test system is Staphylococcus aureus. Briefly: Induction of intracellular ROS accumulation in Staphylococcus aureus incubated overnight by DCFH-DA dye based analysis. It counts as functional, organism-based.
The nature of series [10]: Cytotoxicity against human HeLa cells incubated for 24 hrs by CCK8 assay. It counts as toxicity, cell-based.
Series [11] concerns Staphylococcus aureus. Briefly: Antibacterial activity against Staphylococcus aureus assessed as fold increase in MIC in presence of 50% sheep plasma. It counts as functional.
The test system of series [12] is Staphylococcus aureus. Put plainly: Antibacterial activity against Staphylococcus aureus assessed as fold increase in MIC in presence of 50% FBS. It counts as functional.
Series [13] deals with Staphylococcus aureus. Put plainly: Induction of cytoplasmic membrane depolarization in Staphylococcus aureus assessed as increase in fluorescence intensity measured for 20 mins by DiSC3(5) dye based analysis. The series is classed as functional, organism-based.
In series [14] the test system is Staphylococcus aureus. Put plainly: Induction of inner membrane permeability in Staphylococcus aureus assessed as increase in fluorescence intensity measured for 20 mins by PI dye based analysis. The series is classed as functional, organism-based.
The subject of series [15] is Staphylococcus aureus. Briefly: Antibacterial activity against rifampicin-induced persistant Staphylococcus aureus assessed as decrease in CFU at 100 times MIC measured for 10 hrs. The series is classed as functional, organism-based.
Series [16] deals with Staphylococcus aureus. Put plainly: Induction of resistance development in norfloxacin-resistant Staphylococcus aureus assessed as fold increase in MIC at sub-MIC measured after 20 passages relative to control. It counts as functional.
In series [17] the test system is Staphylococcus aureus. Briefly: Disruption of cell membrane in Staphylococcus aureus assessed as nucleic acid leakage at 32 ug/ml measured after 2 hrs by fluorescence based analysis. To be noted: dose 32.0 µg/ml. It counts as functional, organism-based.
For series [18], the system named is Staphylococcus aureus. Briefly: Disruption of cell membrane in Staphylococcus aureus assessed as protein leakage at 32 ug/ml measured after 2 hrs by fluorescence based analysis. The series is classed as functional, organism-based. Conditions: dose 32.0 µg/ml.
For series [19], the system named is Staphylococcus aureus. Briefly: Induction of resistance development in Staphylococcus aureus assessed as fold increase in MIC at sub-MIC measured after 20 passages relative to control. It counts as functional.
The test system of series [20] is Staphylococcus aureus. Briefly: Antibacterial activity against Staphylococcus aureus assessed as effect on quiescent cells at 100 to 200 times MIC incubated for 24 hrs. It counts as functional, organism-based.
Series [21] has as its system Staphylococcus aureus. Briefly: Inhibition of biofilm formation in Staphylococcus aureus assessed as reduction in number of live bacterial count at 16 times MIC incubated for 24 hrs. The series is classed as functional.

On to `CCCCCCCCCC[n+]1ccc(-c2cc[n+](CC3=C(C(=O)OCc4ccc(OC)cc4)N4C(=O)[C@@H](NC(=O)Cc5ccccc5)[C@H]4SC3)cc2)cc1.[I-].[I-]`, for which the MIC – broadly, the lowest concentration that inhibits growth of the organism – in [1] was found to be 0.5 µg/mL; in [2], 16 µg/mL; in [3] it was 128 µg/mL; in series [7] it was 128 µg/mL. In series [4], the HC50 (as a rule, the concentration giving 50% haemolysis) at 1 h was greater than 1280 µg/mL. In addition, the result in series [5] and in series [6] was Active.
Regarding `CC[C@H](C)[C@H](NC(=O)CN)C(=O)NCC(=O)N[C@@H](C)C(=O)N[C@H](C(=O)N[C@@H](CC(C)C)C(=O)N[C@@H](CCCCN)C(=O)N[C@H](C(=O)N[C@@H](CC(C)C)C(=O)N[C@H](C(=O)N[C@H](C(=O)NCC(=O)N[C@@H](CC(C)C)C(=O)N1CCC[C@H]1C(=O)N[C@@H](C)C(=O)N[C@@H](CC(C)C)C(=O)N[C@H](C(=O)N[C@@H](CO)C(=O)N[C@@H](Cc1c[nH]c2ccccc12)C(=O)N[C@H](C(=O)N[C@@H](CCCCN)C(=O)N[C@@H](CCCNC(=N)N)C(=O)N[C@@H](CCCCN)C(=O)N[C@@H](CCCNC(=N)N)C(=O)N[C@@H](CCC(N)=O)C(=O)N[C@@H](CCC(N)=O)C(N)=O)[C@@H](C)CC)[C@@H](C)CC)[C@@H](C)O)[C@@H](C)O)C(C)C)C(C)C` [MELITTIN], the results for the MIC in series [2] and in series [3] were 2 µg/mL (≈ 0.703 µM) and 8 µg/mL (≈ 2.81 µM), respectively. In addition, the figures for the CC50 at 24 h in series [8] and in [10] were 3.8 µg/mL (≈ 1.33 µM) and 3.9 µg/mL (≈ 1.37 µM), respectively. Also, the Activity entry in [9] was “Dose-dependent-effect”. Also, the “fold change (FC)” value in series [11] and in series [12] was greater than 32 each time.
Turning to `CCCCCCCC[n+]1ccc(C(=O)N[C@@H]2C(=O)N3C(C(=O)OC(c4ccccc4)c4ccccc4)=C(COC(C)=O)CS[C@H]23)cc1.[I-]`, the MIC in [1] was determined as 16 µg/mL; in series [2], 8 µg/mL; in series [3], 32 µg/mL; in series [7], 64 µg/mL. For the same molecule, the outcome in series [13] and in series [14] was Active.
Take `O=C(O)c1cn(C2CC2)c2cc(N3CCNCC3)c(F)cc2c1=O` [CIPROFLOXACIN]: in [15], the result was inactive. For the same molecule, in series [16], the “fold change (FC)” value was determined as 64.
For the molecule `CCCCCCCC[n+]1ccc(SCC2=C(C(=O)OCc3ccc(OC)cc3)N3C(=O)[C@@H](NC(=O)Cc4ccccc4)[C@H]3SC2)cc1.O=C([O-])C(F)(F)F`, the MIC stood at 0.063 µg/mL in [1], 8 µg/mL in series [2], 128 µg/mL in series [3] and 64 µg/mL in series [7]. Besides, the result in series [13] and in series [14] was Active.
As to `CCCCCCCCCCCC[n+]1ccc(-c2cc[n+](CC3=C(C(=O)[O-])N4C(=O)[C@@H](NC(=O)Cc5ccccc5)[C@H]4SC3)cc2)cc1.O=C([O-])C(F)(F)F`, the minimum inhibitory concentration (MIC) in series [1] is 0.25 µg/mL; in series [2], 4 µg/mL; in series [3], greater than 128 µg/mL; in series [7] it was 128 µg/mL. Besides, the result in [17] and in series [18] was inactive. Further, the HC50 at 1 h in series [4] was 333 µg/mL. The result in series [5] and in [6] was Active.
In the case of `C[C@H]1COc2c(N3CCN(C)CC3)c(F)cc3c(=O)c(C(=O)O)cn1c23` [LEVOFLOXACIN ANHYDROUS], the “fold change (FC)” value in series [16] was 16.
Consider `CCCCCCCCCCCCCCCC[n+]1ccc(-c2cc[n+](CC3=C(C(=O)OCc4ccc(OC)cc4)N4C(=O)[C@@H](NC(=O)Cc5ccccc5)[C@H]4SC3)cc2)cc1.[I-].[I-]`, for which the MIC came to 4 µg/mL in series [1], 8 µg/mL in [2], 128 µg/mL in series [3] and 128 µg/mL in [7]. In addition, the HC50 at 1 h in series [4] turned out to be 109 µg/mL. In addition, the outcome in series [5] and in series [6] was Active.
On to `CCCCCCCCCC[n+]1ccc(C(=O)N[C@@H]2C(=O)N3C(C(=O)OC(c4ccccc4)c4ccccc4)=C(COC(C)=O)CS[C@H]23)cc1.[I-]`, for which the MIC in [1] amounted to 2 µg/mL; in series [2] it was 2 µg/mL; in [3] it was 32 µg/mL; in series [7] it was 32 µg/mL. For the same molecule, the result in [13] and in series [14] was Active.
Take `CCn1cc(C(=O)O)c(=O)c2cc(F)c(N3CCNCC3)cc21` [NORFLOXACIN]: the “fold change (FC)” value in [19] and in series [16] was 64 in each case.
Regarding `CCCCCCCCCCCC[n+]1ccc(-c2cc[n+](CC3=C(C(=O)OCc4ccc(OC)cc4)N4C(=O)[C@@H](NC(=O)Cc5ccccc5)[C@H]4SC3)cc2)cc1.[I-].[I-]`, the MIC was found to be 1 µg/mL in [1], 4 µg/mL in series [2], 32 µg/mL in series [3] and 32 µg/mL in series [7]. The molecule also displayed a concentration for 50% haemolysis (HC50) at 1 h in series [4] of 273 µg/mL. For the same molecule, the result in [5] and in [6] was Active.
As for `CO[C@H]1/C=C/O[C@@]2(C)Oc3c(C)c(O)c4c(O)c(c(/C=N/N5CCN(C)CC5)c(O)c4c3C2=O)NC(=O)/C(C)=C\C=C\[C@H](C)[C@H](O)[C@@H](C)[C@@H](O)[C@@H](C)[C@H](OC(C)=O)[C@@H]1C`, the result in series [15] was inactive.
`CC(=O)NC[C@H]1CN(c2ccc(N3CCOCC3)c(F)c2)C(=O)O1` [LINEZOLID]: the “fold change (FC)” value in [16] is given as 4.
Consider `CO/N=C(\C(=O)N[C@@H]1C(=O)N2C(C(=O)O)=C(COC(C)=O)CS[C@H]12)c1csc(N)n1`, for which the outcome in series [15] and in [20] was inactive.
For `CN[C@H](CC(C)C)C(=O)N[C@H]1C(=O)N[C@@H](CC(N)=O)C(=O)N[C@H]2C(=O)N[C@H]3C(=O)N[C@H](C(=O)N[C@H](C(=O)O)c4cc(O)cc(O)c4-c4cc3ccc4O)[C@H](O)c3ccc(c(Cl)c3)Oc3cc2cc(c3O[C@@H]2O[C@H](CO)[C@@H](O)[C@H](O)[C@H]2O[C@H]2C[C@](C)(N)[C@H](O)[C@H](C)O2)Oc2ccc(cc2Cl)[C@H]1O` [VANCOMYCIN], the minimal inhibitory concentration (MIC) in series [2] stood at 2 µg/mL (≈ 1.38 µM). In addition, in series [21], the Activity was ~1 10^5CFU/ml. The HC50 at 1 h in series [4] is greater than 1280 µg/mL.
